Measured values from patent publication US12110289B2, “Heterocyclic compounds, preparation methods and uses thereof” (InventisBio Co., Ltd., priority 2020, dated 2024).

Key:
[1] = Human hepatocyte clearance study; assay type: in vitro ADME; conditions: human, pooled cryopreserved human hepatocytes (suspension), working cell density 2 × 10^6 viable cells/mL
Procedure: (§1) The in vitro human hepatocyte clearance of compounds described here was studied using pooled human hepatocytes purchased from BioreclamationIVT (Westbury, NY, Cat #X008001, Lot #TQJ). The assay was conducted according to manufacturer's instruction. Briefly, 10 mM stock solutions of test compounds and positive control (Verapamil) were prepared in 100% DMSO. Thawing media (50 mL) used in the study consists of 31 mL Williams E medium (GIBCO Cat #12551-032), 15 mL isotonic percoll (GE Healthcare Cat #17-0891-09), 500 uL 100× GlutaMax (GIBCO Cat #35050), 750 uL HEPES (GIBCO Cat #15630-080), 2.5 mL FBS (Corning Cat #35-076-CVR), 50 uL human insulin (GIBCO Cat #12585-014) and 5 uL dexamethasone (NICPBP). Incubation media is made of Williams E medium supplemented with 1× GlutaMax. Both thawing medium and incubation medium (serum-free) were placed in a 37° C. water bath for at least 15 minutes prior to use. Compound stock solutions were diluted to 100 μM by combining 198 μL of 50% acetonitrile/50% water and 2 μL of 10 mM stock solution. Verapamil was use as positive control in the assay. Vials of cryopreserved hepatocytes were removed from storage and thawed in a 37° C. water bath with gentle shaking. Contents of the vial were poured into the 50 mL thawing medium conical tube. Vials were centrifuged at 100 g for 10 minutes at room temperature. […] […] […] The boiled hepatocytes were used to prepare negative samples. Aliquots of 198 μL hepatocytes were dispensed into each well of a 96-well non-coated plate. The plate was placed in the incubator on an orbital shaker at 500 rpm for approximately 10 minutes. Aliquots of 2 μL of the 100 μM test compound or positive control were added into respective wells of the non-coated 96-well plate to start the reaction. This assay was performed in duplicate. The plate was incubated in the incubator on an orbital shaker at 500 rpm for the designated time points. Twenty-five microliter of contents were transferred and mixed with 6 volumes (150 μL) of cold acetonitrile with IS (200 nM imipramine, 200 nM labetalol and 200 nM diclofenac) to terminate the reaction at time points of 0, 15, 30, 60, 90 and 120 minutes. Samples were centrifuged at 3,220 g for 25 minutes and aliquots of 150 μL of the supernatants were used for LC-MS/MS analysis. For data analysis, all calculations were carried out using Microsoft Excel. Peak areas were determined from extracted ion chromatograms. The in vitro half-life (t1/2) of parent compound was determined by regression analysis of the percent parent disappearance vs. time curve. […] Scaling factors for in vivo intrinsic clearance prediction using human hepatocytes are listed as: liver weight (g liver/kg body weight): 25.7; hepatocyte concentration (10^6 cells/g liver): 99; scaling factor: 2544.3.

pooled human hepatocytes = assay: Human hepatocyte clearance study; assay type: in vitro ADME
Procedure: as §1

`C=CC(=O)N1C[C@H](C)N(c2nc(=O)n(-c3c(C4CC4)ncnc3C3CC3)c3nc(-c4c(N)cccc4F)c(Cl)cc23)C[C@H]1C` [Compound 126] gave a hepatocyte CLint at 1 µM ([1]; read-out: Human In vitro Clint (μl/min/10^6 cells)) of 6.6 µL/min/1e6 cells, a half-life at 1 µM ([1]; read-out: Human In vitro T1/2) of 1.73 h and a CLint scaled at 1 µM ([1]; read-out: Human Scale-up Clint) of 17 mL/min/kg. The “human hepatocyte clearance profile compared to control compounds” value (pooled human hepatocytes) was “better human hepatocyte clearance profile” and the “Human Hepatocyte Remaining Percentage @ 120 min (%)” value (pooled human hepatocytes; working cell density 2 × 10^6 viable cells/mL) was 47.8%.
